According to patent publication US7572939B2, “Type of soluble pentacene precursor” (Academia Sinica, priority 2006, dated 2009):
Read-outs that look alike come from different tables or passages of the source.

Experiments:
Type in all cases: physicochemical
[1] = Stability at ambient conditions
[2] = Solubility in organic solvents
Method: Compound (3) is quite soluble in dichloromethane benzene, toluene, acetone, and tetrahydrofuran (all in the range of ˜2.0 mM i.e. about 0.7 mg/mL solvent) but is not soluble in methanol, ethanol, or acetonitrile. Compound (3) can be applied to a surface of an article by spin coating, spray coating, screen printing or ink-jet printing to form a film. The film can be dried in any of the conventional ways including air drying or with mild heating, i.e. below about 120° C. Subsequent to drying, a chemical reaction is initiated preferably by the application of heat resulting, inter alia, in the driving off of volatile components including CO.

[3] = Thermal stability by TGA (thermal gravimetric analysis) and DSC
Method: Thermal initiated carbonyl extrusion can be depicted by both TGA (thermal gravimetric analysis) and DSC (differential scanning calorimetry) studies. […] The decarbonylation appears at 150° C. to yield pentacene, which decomposes at about 360° C. as measured by 5% weight loss. During the extrusion, Compound (3) loses about 9% weight corresponding to the weight ratio of CO in the molecule. The pentacene thus produced is stable up to temperatures of about 350° C. Above about 350° C., Compound (3) starts to experience thermal decomposition.
General: ^1H^13C NMR spectra were obtained on a Bruker AMX-400 spectrometer. Infrared spectra were recorded on a Perkin-Elmer 682 infrared spectrophotometer. Ultraviolet-visible absorption Spectra were recorded on a HP 8453 spectrophotometer. Differential scanning calorimetry was done on a Perkin-Elmer model DSC7 instrument. Thermal gravimetric analysis was performed by a Perkin-Elmer TGA7 analyzer.

| stability [1] | solubility ([2]; in methanol, ethanol or acetonitrile) | solubility ([2]; organic solvent or mixture, in dichloromethane, benzene, toluene, acetone and tetrahydrofuran (all in this range), read-out: solubility) | solubility ([2]; organic solvent or mixture, in dichloromethane, benzene, toluene, acetone and tetrahydrofuran, per mL solvent, read-out: solubility) | temperature above which thermal decomposition starts ([3]; TGA) | fragmentation (decarbonylation) temperature ([3]; TGA/DSC, 10° C./min heating rate, CO extrusion to yield pentacene) | weight loss during CO extrusion ([3]; TGA, corresponds to weight ratio of CO in the molecule) | Compound | decomposition temperature ([3]; TGA, as measured by 5% weight loss) | temperature up to which stable ([3]; TGA, pentacene produced from the precursor) |
| --- | --- | --- | --- | --- | --- | --- | --- | --- | --- |
| stable | not soluble | ~2000 µM | ~700 µg/mL | Above 350 °C | 150 °C | about 9% | O=C1C2c3cc4ccccc4cc3C1c1cc3ccccc3cc12 [Compound (3), 6,13-dihydro-6,13-methanopentacene-15-one] |  |  |
|  |  |  |  |  |  |  | c1ccc2cc3cc4cc5ccccc5cc4cc3cc2c1 [pentacene] | about 360 °C | about 350 °C |
